Measurements from article PMC9330922, “Genomewide Analysis and Biological Characterization of Cathelicidins with Potent Antimicrobial Activity and Low Cytotoxicity from Three Bat Species” (Antibiotics, 2022).
Structures can show the parent of a compound that is named as a salt. Where two headings read alike, the source gives them in different places. No end group written: not given here.

Legend:
[1] = test system: panel of 12 reference bacteria, comprised of 6 Gram-negative strains and 6 Gram-positive strains; type: cell-based; settings: 6 h
Experimental: (§1) The antibacterial activities of the chemically synthesized peptides were evaluated against a panel of bacteria consisting of 6 Gram-negative strains, including E. coli ATCC 25922 (American Type Culture Collection, Manassas, VA, USA), P. aeruginosa ATCC 27853, S. Typhimurium ATCC 14028, A. baumannii KCTC (Korean Collection for Type Cultures, Jeongeup, Korea) 23254, K. pneumoniae KCTC 1726, and E. cloacae ATCC 13047, and 6 Gram-positive strains, including S. aureus ATCC 6538, B. cereus ATCC 10876, E. faecalis ATCC 29212, S. agalactiae ATCC 27956, S. dysgalactiae ATCC 27957, and S. equi ATCC 43079. Ampicillin (Sigma-Aldrich, St. Louis, MO, USA), chloramphenicol (Sigma-Aldrich), and gentamicin sulfate (Sigma-Aldrich) were used as controls for antibacterial activity. The MIC was determined by a colorimetric method using the Microbial Viability Assay Kit-WST (Dojindo, Kumamoto, Japan) according to the manufacturer’s manual and the Clinical and Laboratory Standards Institute (CLSI) guidelines (2018). Four colonies of each bacterium were inoculated into 5 mL of Luria-Bertani (LB) broth medium (BD Bioscience, Franklin Lakes, NJ, USA) or brain heart infusion broth (BHIB; BD Bioscience) at 37 °C for 6 h with shaking at 220 rpm. E. faecalis and streptococci were cultured in BHIB because of their slow growth, whereas all other bacteria were cultured in LB medium. The cells were washed by sterile saline (0.9% NaCl) twice and adjusted in a single well of a 96-well plate at a cell density of 1.5 × 10^5 CFU/well in accordance with 0.5 McFarland standard. Subsequently, 180 µL/well of fresh Mueller-Hinton broth (MHB; BD Bioscience), except for E. faecalis and streptococci using BHIB was added to the plate using BHIB. Final concentrations of 1–40 µg/mL (0.3–19.3 μM) of each peptide and reference antibiotic were added to each well. The plates were then incubated at 37 °C for 6 h. Subsequently, 10 µL of the coloring reagent was added, and the mixture was incubated at 37 °C for 2 h. The absorbance of each well was measured at 450 nm using a microplate spectrophotometer (Bio-Rad, xMark spectrophotometer, Hercules, CA, USA). MIC values were determined when the difference in the absorbance values between treatments and blanks (media and coloring reagent only) was less than 0.05. Experiments were performed in triplicate.

[2] = test system: HaCaT cells; assay: In vitro cytotoxicity assay, WST-1 cell viability; type: cell-based, Human
Experimental: HaCaT cells were cultured in Dulbecco’s modified Eagle’s medium (DMEM; Hyclone^TM, Logan, UT, USA) with 10% fetal bovine serum (FBS; Hyclone^TM) and 1% penicillin/streptomycin (Pen-Strep; Hyclone^TM) up to 80% confluence at 37 ℃ and 5% CO2. Cells were detached from the plate by adding 0.25% trypsin-EDTA solution (Gibco^TM; Carlsbad, CA, USA). In a 96-well plate, 2 × 10^4 cells were seeded per well and cultured for 24 h. Subsequently, the medium was replaced with 100 μL DMEM (Hyclone^TM) containing 10% heat-inactivated FBS. Peptides were added to each well at concentrations of 64 μg/mL and 160 μg/mL. As references for complete cell lysis, 64 μg/mL melittin (Sigma-Aldrich) and Triton X-100 (Sigma-Aldrich) were used. Untreated cells were used as negative controls. After 24 h incubation at 37 ℃ and 5 % CO2, 10 μL of coloring solution (Cell Proliferation Reagent WST-1^TM; Sigma Aldrich) was added to each well according to the manufacturer’s instructions. The absorbance at 450 nm (treated group and control) and 650 nm (background) was measured in each well using a microplate reader (xMarkTM spectrophotometer; Bio-Rad). The cell viability was calculated using the following equation. All experiments were performed in triplicate. Cell viability (%) = 100 × (OD (treated group) − OD(Background))/(OD (negative control) − OD (Background))(2)

[3] = test system: Streptococcus agalactiae ATCC 27956; assay: microbe, parasite or virus in culture; type: cell-based; settings: BHIB; for Minimum Inhibitory Concentration: Microbial Viability Assay Kit-WST, 1.5 × 10^5 CFU/well, 37 °C 6 h + 2 h coloring reagent, A450, triplicate; for MIC: Streptococcus agalactiae, ATCC27956, value in brackets, WST colorimetric, 37 °C 6 h + 2 h, triplicate, read-out: Minimum Inhibitory Concentration
Experimental: as §1

[4] = test system: Streptococcus dysgalactiae ATCC 27957; assay: microbe, parasite or virus in culture; type: cell-based; settings: BHIB; for Minimum Inhibitory Concentration: Microbial Viability Assay Kit-WST, 1.5 × 10^5 CFU/well, 37 °C 6 h + 2 h coloring reagent, A450, triplicate; for MIC: Streptococcus dysgalactiae, ATCC27957, value in brackets, WST colorimetric, 37 °C 6 h + 2 h, triplicate, read-out: Minimum Inhibitory Concentration
Experimental: as §1

[5] = test system: Salmonella enterica serovar Typhimurium ATCC 14028; assay: microbe, parasite or virus in culture; type: cell-based; settings: MHB; for Minimum Inhibitory Concentration: Microbial Viability Assay Kit-WST, 1.5 × 10^5 CFU/well, 37 °C 6 h + 2 h coloring reagent, A450, triplicate; for MIC: Salmonella enterica, value in brackets, WST colorimetric, 37 °C 6 h + 2 h, triplicate, read-out: Minimum Inhibitory Concentration
Experimental: as §1

[6] = test system: Enterobacter cloacae subsp. cloacae ATCC 13047; assay: microbe, parasite or virus in culture; type: cell-based; settings: MHB; for MIC: Enterobacter cloacae, ATCC13047, value in brackets, WST colorimetric, 37 °C 6 h + 2 h, triplicate, read-out: Minimum Inhibitory Concentration; for Minimum Inhibitory Concentration: Microbial Viability Assay Kit-WST, 1.5 × 10^5 CFU/well, 37 °C 6 h + 2 h coloring reagent, A450, triplicate
Experimental: as §1

[7] = test system: Escherichia coli ATCC 25922; assay: microbe, parasite or virus in culture; type: cell-based; settings: MHB; for MIC: Escherichia coli, ATCC25922, 8 h, value in brackets, WST colorimetric, 37 °C 6 h + 2 h, triplicate, read-out: Minimum Inhibitory Concentration; for Minimum Inhibitory Concentration: Microbial Viability Assay Kit-WST, 1.5 × 10^5 CFU/well, 37 °C 6 h + 2 h coloring reagent, A450, triplicate
Experimental: as §1

[8] = test system: Bacillus cereus ATCC 10876; assay: microbe, parasite or virus in culture; type: cell-based; settings: MHB; for MIC: Bacillus cereus, ATCC10876, value in brackets, WST colorimetric, 37 °C 6 h + 2 h, triplicate, read-out: Minimum Inhibitory Concentration; for Minimum Inhibitory Concentration: Microbial Viability Assay Kit-WST, 1.5 × 10^5 CFU/well, 37 °C 6 h + 2 h coloring reagent, A450, triplicate
Experimental: as §1

[9] = test system: Klebsiella pneumoniae subsp. pneumoniae KCTC 1726; assay: microbe, parasite or virus in culture; type: cell-based; settings: MHB; for MIC: Klebsiella pneumoniae, KCTC1726, read-out: Minimum Inhibitory Concentration
Experimental: as §1

[10] = test system: Acinetobacter baumannii KCTC 23254; assay: microbe, parasite or virus in culture; type: cell-based; settings: MHB; for MIC: Acinetobacter baumannii, KCTC23254, value in brackets, WST colorimetric, 37 °C 6 h + 2 h, triplicate, read-out: Minimum Inhibitory Concentration; for Minimum Inhibitory Concentration: Microbial Viability Assay Kit-WST, 1.5 × 10^5 CFU/well, 37 °C 6 h + 2 h coloring reagent, A450, triplicate
Experimental: as §1

[11] = test system: Staphylococcus aureus ATCC 6538; assay: microbe, parasite or virus in culture; type: cell-based; settings: MHB; for Minimum Inhibitory Concentration: Microbial Viability Assay Kit-WST, 1.5 × 10^5 CFU/well, 37 °C 6 h + 2 h coloring reagent, A450, triplicate; for MIC: Staphylococcus aureus, ATCC6538, value in brackets, WST colorimetric, 37 °C 6 h + 2 h, triplicate, read-out: Minimum Inhibitory Concentration
Experimental: as §1

[12] = test system: Pseudomonas aeruginosa ATCC 27853; assay: microbe, parasite or virus in culture; type: cell-based; settings: MHB; for Minimum Inhibitory Concentration: Microbial Viability Assay Kit-WST, 1.5 × 10^5 CFU/well, 37 °C 6 h + 2 h coloring reagent, A450, triplicate; for MIC: Pseudomonas aeruginosa, ATCC27853, value in brackets, WST colorimetric, 37 °C 6 h + 2 h, triplicate, read-out: Minimum Inhibitory Concentration
Experimental: as §1

[13] = test system: Streptococcus equi subsp. zooepidemicus ATCC 43079; assay: microbe, parasite or virus in culture; type: cell-based; settings: BHIB; for Minimum Inhibitory Concentration: Microbial Viability Assay Kit-WST, 1.5 × 10^5 CFU/well, 37 °C 6 h + 2 h coloring reagent, A450, triplicate; for MIC: Streptococcus equi, ATCC43079, value in brackets, WST colorimetric, 37 °C 6 h + 2 h, triplicate, read-out: Minimum Inhibitory Concentration
Experimental: as §1

[14] = test system: Enterococcus faecalis ATCC 29212; assay: microbe, parasite or virus in culture; type: cell-based; settings: BHIB; for MIC: Enterococcus faecalis, ATCC29212, value in brackets, WST colorimetric, 37 °C 6 h + 2 h, triplicate, read-out: Minimum Inhibitory Concentration; for Minimum Inhibitory Concentration: Microbial Viability Assay Kit-WST, 1.5 × 10^5 CFU/well, 37 °C 6 h + 2 h coloring reagent, A450, triplicate
Experimental: as §1

[15] = Microbial Viability Assay Kit-WST, 1.5 × 10^5 CFU/well, 37 °C 6 h + 2 h coloring reagent, A450, triplicate
[16] = value in brackets, WST colorimetric, 37 °C 6 h + 2 h, triplicate

Compound: ILGPALRIGGRIAGRIAGKLIGDAINRHRERNRQRRG [PD-CATH]
- MIC, range over strains [1]: 0.7 to 7.3 µM
- concentration at which the viability of human keratinocyte was affected [2]: 160 µg/mL

Compound: GIFILKHRRPIGRGIEIT [ΔML-CATH]
- MIC (no observable antibacterial activity) [1]: > 13.7 µM

Compound: CNC(C)C1CCC(N)C(OC2C(N)CC(N)C(OC3OCC(C)(O)C(NC)C3O)C2O)O1 (stereo not drawn) [Gentamicin, gentamicin sulfate]
- Minimum Inhibitory Concentration [3]: 75 µg/mL
- MIC [3]: 158 µM
- Minimum Inhibitory Concentration [4]: 15 µg/mL
- MIC [4]: 31.5 µM
- Minimum Inhibitory Concentration [5]: 1 µg/mL
- MIC [5]: 2.1 µM
- MIC [6]: 2.1 µM
- Minimum Inhibitory Concentration [6]: 1 µg/mL
- MIC [7]: 2.1 µM
- Minimum Inhibitory Concentration [7]: 1 µg/mL
- MIC [8]: 2.1 µM
- Minimum Inhibitory Concentration [8]: 1 µg/mL
- MIC [9, 15]: 19 µg/mL
- MIC [9, 16]: 39.8 µM
- MIC [10]: 21 µM
- Minimum Inhibitory Concentration [10]: 10 µg/mL
- Minimum Inhibitory Concentration [11]: 1 µg/mL
- MIC [11]: 2.1 µM
- Minimum Inhibitory Concentration [12]: 1 µg/mL
- MIC [12]: 2.1 µM
- Minimum Inhibitory Concentration [13]: 45 µg/mL
- MIC [13]: 94.5 µM
- MIC [14]: 189 µM
- Minimum Inhibitory Concentration [14]: 90 µg/mL

Compound: LNPLIKAGIFILKHRRPIGRGIEITGRGIKKFFSK [ML-CATH]
- MIC, range over strains [1]: 0.3 to 8.8 µM
- MICs, range [1]: 0.5 to 0.8 µM

Compound: IAGRIAGKLIGDAINRHRERNRQRR [ΔPD-CATH]
- MIC (no observable antibacterial activity) [1]: > 13.7 µM

Compound: CC1(C)S[C@@H]2[C@H](NC(=O)[C@H](N)c3ccccc3)C(=O)N2[C@H]1C(=O)O [Ampicillin]
- Minimum Inhibitory Concentration [3]: 4 µg/mL
- MIC [3]: 11.4 µM
- Minimum Inhibitory Concentration [4]: 2 µg/mL
- MIC [4]: 5.7 µM
- Minimum Inhibitory Concentration [5]: > 80 µg/mL
- MIC [5]: > 229 µM
- MIC [6]: > 229 µM
- Minimum Inhibitory Concentration [6]: > 80 µg/mL
- MIC [7]: 14.3 µM
- Minimum Inhibitory Concentration [7]: 5 µg/mL
- MIC [8]: 229 µM
- Minimum Inhibitory Concentration [8]: 80 µg/mL
- MIC [9, 16]: > 229 µM
- Minimum Inhibitory Concentration [9, 15]: > 80 µg/mL
- MIC [10]: > 229 µM
- Minimum Inhibitory Concentration [10]: > 80 µg/mL
- Minimum Inhibitory Concentration [11]: 2 µg/mL
- MIC [11]: 5.7 µM
- Minimum Inhibitory Concentration [12]: > 640 µg/mL
- MIC [12]: > 1830 µM
- Minimum Inhibitory Concentration [13]: 2 µg/mL
- MIC [13]: 5.7 µM
- MIC [14]: 28.6 µM
- Minimum Inhibitory Concentration [14]: 10 µg/mL

Compound: LLRRGGRKIGQGLERIGQRIQGF [ΔHA-CATH]
- MIC (no observable antibacterial activity) [1]: > 13.7 µM

Compound: ILGRLRDLLRRGGRKIGQGLERIGQRIQGFFSNREPMEES [HA-CATH]
- MIC, range over strains [1]: 1.1 to 7.3 µM

Compound: O=C(N[C@H](CO)[C@H](O)c1ccc([N+](=O)[O-])cc1)C(Cl)Cl [chloramphenicol]
- Minimum Inhibitory Concentration [3]: 5 µg/mL
- MIC [3]: 15.5 µM
- Minimum Inhibitory Concentration [4]: 4 µg/mL
- MIC [4]: 12.4 µM
- Minimum Inhibitory Concentration [5]: 5 µg/mL
- MIC [5]: 15.5 µM
- MIC [6]: 15.5 µM
- Minimum Inhibitory Concentration [6]: 5 µg/mL
- MIC [7]: 9.3 µM
- Minimum Inhibitory Concentration [7]: 3 µg/mL
- MIC [8]: 31 µM
- Minimum Inhibitory Concentration [8]: 10 µg/mL
- MIC [9, 16]: > 248 µM
- Minimum Inhibitory Concentration [9, 15]: > 80 µg/mL
- MIC [10]: 118 µM
- Minimum Inhibitory Concentration [10]: 38 µg/mL
- Minimum Inhibitory Concentration [11]: 7.5 µg/mL
- MIC [11]: 23.2 µM
- Minimum Inhibitory Concentration [12]: 80 µg/mL
- MIC [12]: 248 µM
- Minimum Inhibitory Concentration [13]: 5 µg/mL
- MIC [13]: 15.5 µM
- MIC [14]: 31 µM
- Minimum Inhibitory Concentration [14]: 10 µg/mL

Compound: Triton X-100
- Cell Viability ± SD [2]: 8.9 ± 0.05 %
